The structures appear in SMILES notation.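 Grown in 96-well plates, cells were treated for 48 hours with each compound at five concentrations. Insufficient inhibition: endpoint recorded as highest concentration tested. At the GI50, growth is halved.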 Active and inactive are the calls of the source. Rule as the data show it: active = GI50 up to about 1.1 µM and inactive = higher. A value given as a limit tells only on which side of the number the result lay.

Some test systems named below: SNB-19; HT-29; UACC-62; K562; CCRF-CEM; OVCAR-8; CAKI-1; HOP-92; HCT-116; HCC 2998; HL-60; LOX IMVI; Hs-578T; T47D; NCI-H522; BT-549; SNB-75; UACC-257; MDA-N; A498.
Holding throughout (assay): NCI tumour cell line growth inhibition, 48 h

As for `CCCCn1cc(C(=O)O)c(=O)c2c3sccc3ccc21`, the GI50 in the assay with SNB-19, with HT-29, with UACC-62, with K562, with CCRF-CEM and in the assay on OVCAR-8 was > 100 µM (inactive) each time. The GI50 with CAKI-1 was > 100 µM (inactive); with HOP-92, > 100 µM (inactive); with HCT-116, > 100 µM (inactive); in the assay with HCC 2998 it was > 100 µM (inactive); in the assay with HL-60, 34.8 µM (inactive); in the assay with LOX IMVI, > 100 µM (inactive). Moreover, the GI50 in the assay with Hs-578T was > 100 µM (inactive); in the assay on T47D it was > 100 µM (inactive); with NCI-H522, > 100 µM (inactive); in the assay with BT-549 it was > 100 µM (inactive); with SNB-75, 25.8 µM (inactive); with UACC-257, > 100 µM (inactive). Also, the GI50 in the assay with MDA-N and in the assay on A498 was > 100 µM (inactive) in each case.
On to `O=C1N[C@@H]2c3c(Br)sc(Br)c3C(=O)[C@@H]2N1`, for which the GI50 with SNB-19 is 11.3 µM (inactive); with HT-29, 2.82 µM (inactive); in the assay with UACC-62, 4.73 µM (inactive); with K562, 2.1 µM (inactive); in the assay on CCRF-CEM, 0.678 µM (active); in the assay on OVCAR-8 it was 2.9 µM (inactive). Besides, the GI50 in the assay with CAKI-1 is 3.8 µM (inactive); in the assay on HOP-92, 5.56 µM (inactive); in the assay with HCT-116 it was 1.89 µM (inactive); with HCC 2998, 1.81 µM (inactive); in the assay with HL-60, 2.14 µM (inactive); with LOX IMVI it was 1.93 µM (inactive). Besides, the GI50 is 8.28 µM (inactive) in the assay with Hs-578T; 5.64 µM (inactive) with T47D; 5.04 µM (inactive) in the assay with NCI-H522; 17 µM (inactive) with BT-549; 7.73 µM (inactive) in the assay on SNB-75; 3.3 µM (inactive) in the assay on UACC-257. Moreover, the GI50 in the assay on MDA-N is 2.08 µM (inactive); in the assay on A498, 17.3 µM (inactive).
For the compound `O=C(C1OC1c1ccc(O)cc1)C12CC3CC(CC(C3)C1)C2` (stereo not given), the GI50 in the assay with SNB-19 was > 100 µM (inactive); with HT-29, > 100 µM (inactive); with UACC-62, 40.1 µM (inactive); in the assay on K562 it was 23.7 µM (inactive); in the assay with CCRF-CEM, 5.92 µM (inactive); in the assay with OVCAR-8, 50 µM (inactive). The GI50 in the assay on CAKI-1 was 40.8 µM (inactive); in the assay on HOP-92, 32.3 µM (inactive); with HCT-116 it was 41.5 µM (inactive); in the assay on HCC 2998 it was > 100 µM (inactive); in the assay with HL-60, 10.9 µM (inactive); with LOX IMVI, > 40.2 µM (inactive). The GI50 was > 100 µM (inactive) in the assay on Hs-578T; 22.9 µM (inactive) in the assay with T47D; 7.29 µM (inactive) with NCI-H522; 31.2 µM (inactive) with BT-549; > 100 µM (inactive) with SNB-75; 57 µM (inactive) in the assay with UACC-257. The results for the GI50 with MDA-N and with A498 were > 57.1 µM (inactive) and > 69.8 µM (inactive), respectively.
As to `COc1cc(/N=N/c2cccc(S(N)(=O)=O)c2)c2ccccc2c1N`, the GI50 is 14.6 µM (inactive) in the assay on SNB-19; 15.2 µM (inactive) with HT-29; 2.07 µM (inactive) in the assay with UACC-62; 12.2 µM (inactive) with K562; 8.17 µM (inactive) with CCRF-CEM; 16.3 µM (inactive) in the assay on OVCAR-8. Also, the GI50 is 7.06 µM (inactive) in the assay with CAKI-1; 17.3 µM (inactive) with HOP-92; 14.7 µM (inactive) in the assay on HCT-116; 8.04 µM (inactive) with HCC 2998; 5.2 µM (inactive) in the assay on HL-60; 3.4 µM (inactive) in the assay on LOX IMVI. Further, the GI50 in the assay on Hs-578T is 2.67 µM (inactive); with T47D it was 13.2 µM (inactive); in the assay on NCI-H522 it was 12.1 µM (inactive); with BT-549 it was 7.33 µM (inactive); with SNB-75, 1.98 µM (inactive); in the assay with UACC-257, 1.54 µM (inactive). Besides, the GI50 was 2.41 µM (inactive) in the assay on MDA-N and 19.7 µM (inactive) with A498.

For the origin of these results see ChEMBL document CHEMBL1201862, “PubChem BioAssay data set” (2004).
